In patent publication US20060074073A1, “Therapeutic combinations comprising poly (ADP-ribose) polymerases inhibitor” (AGOURON PHARMACEUTICALS, INC., priority 2004, published 2006):
Like-named read-outs stand apart in the source and are kept apart here. Marks after values point to notes of the source that are not given here.

Columns and labels:
[1] = system: SW620 human colon carcinoma xenograft; test: In vivo antitumor efficacy with temozolomide, SW620 xenograft
[2] = system: LoVo xenografts; test: In vivo antitumor efficacy with irinotecan, LoVo xenograft; design: species or system mice; details: once weekly × 3
Source text: In no combination study was antagonism observed.

[3] = Plasma and tumor levels by HPLC/MS in mice bearing SW620 xenograft; assay type: in vivo; details: for concentration at 0.5 h / concentration at 6 h / concentration at 24 h: mouse, intraperitoneal
Protocol: In a parallel study plasma and tumor levels of the compound of formula 1 were measured by an HPLC/MS assay. In addition the degree of inhibition of tumor PARP catalytic activity was assessed using P^32-NAD incorporation into poly-ADP-ribose polymer in homogenates from SW620 tumors of treated animals. […] PARP catalytic activity was inhibited by 50% at 6 h and by 25% at 24 h.

[4] = system: PARP; test: Tumor PARP catalytic activity, 32P-NAD incorporation in SW620 tumor homogenates of treated animals; assay type: in vivo, mice
Protocol: Tumours were excised and were snap frozen in liquid nitrogen and stored at −80° C. until homogenised for analysis. The specimen was defrosted on ice and the wet weight documented. The tissue was homogenised using a Pro 2000 instrument (Pro Scientific Inc, Monroe, Conn., USA) in 3 volumes (i.e. 1 mg plus 3 μl isotonic buffer −7 mM Hepes, 26 mM KCl, 0.1 mM dextran, 0.4 mM EGTA, 0.5 mM MgCl2, 45 mM sucrose, pH 7.8), giving a homogenate with an overall dilution of 1 in 4. The homogenate was kept on ice throughout the process, and homogenisation was performed in 10 second bursts to prevent undue warming of the sample. Prior to assay the samples were further diluted with isotonic buffer where necessary to give a final dilution of 1 in 40 for [^32P]NAD incorporation assay or 1 in 1000 for immunoblot aaasy.
Briefly, cells were suspended in hypotonic buffer (9 mM HEPES pH 7.8, 4.5% (v/v) dextran, 4.5 mM MgCl2 and 5 mM DTT) at 1.5×10^7/ml on ice for 30 minutes then 9 vol of isotonic buffer (40 mM HEPES pH 7.8, 130 mM KCl, 4% (v/v) dextran, 2 mM EGTA, 2.3 mM MgCl2, 225 mM sucrose and 2.5 mM DTT) was added. The reaction was started by adding 300 μl cells to 100 μl 300 μM NAD^+ containing [^32P]-NAD^+ (Amersham, UK), and terminated by the addition of 2 ml ice cold 10% (w/v) TCA+10% (w/v) sodium pyrophosphate. After 30 min on ice the precipitated ^32P—labelled ADP-ribose polymers were filtered on Whatman GC/C filters (Whatman Intemational Ltd, Kent, UK), washed 5 times with 1% (v/v) TCA/1% (v/v) sodium pyrophosphate, dried and counted. PARP inhibitory IC50 values were calculated from computer-fitted curves (GraphPad Software, Inc., San Diego, Calif.).
Tumour homogenates were assayed in a similar manner; however, the homogenisation process introduces sufficient DNA damage to maximally stimulate PARP activity and oligonucleotide was not therefore required. Results were expressed in terms of pmol PAR former per mg tumour.
Preparation of Tumour/Tissue Samples • 1. The frozen tumour samples are weighed. • 2. 3 volumes (i.e. 3 μl solution added for each 1 mg tissue) of isotonic buffer plus DTT is added to the tumour sample. This is stored on ice until and during homogenisation. • 3. The sample is homogenised on ice within a Class II cabinet for 10-second bursts until no detectable macroscopic pieces of tissue are visible. • 4. Sufficient volume of the homogenate is diluted 1 in 10 with isotonic buffer plus DTT to provide an overall dilution of 1 in 40 from the original sample. A final volume of 3 ml is sufficient for triplicate sampling and a subsequent protein assay. • 5. The diluted homogenate is stored on ice and assayed within one hour as below.
PARP Assay of Tumour/Tissue Samples • 1. ^32P 600 μM NAD solution is prepared fresh on the day of experiment as detailed above. Oligonucleotide stock is removed from storage and defrosted. • 2. Water bath is warmed to 26° C. and set to agitate at 70 oscillations per minute.
3. Reaction test tubes are set up as per table A for the QC samples and as per table B for the homogenate.
• 4. Each QC sample is assayed in triplicate, with T0, +oligo and −oligo samples ×3. (Total of 9 tubes per sample, if low cell counts −oligo samples are omitted.) Homogenates are also assayed in triplicate, with T0 and reaction samples ×3. (Total 6 tubes per sample). • 5. 2 ml ice cold 10% TCA+10% NaPPi is added to the T0 tubes prior to addition of homogenate or cells, to correct for non-specific binding of radio-label to the filter. • 6. Reaction test tubes homogenates and QC cells are warmed in the water bath to 26° C. for 7 minutes. • 7. Each preparation is vortexed briefly and the reaction is started by adding 300 μl of this to each reaction tube. • 8. The reaction is stopped exactly 6 minutes after addition of homogenate by adding 2 ml of ice cold 10% TCA+10% NaPPi and vortexing. • 9. The tube is then incubated on ice for at least one hour prior to filtration. • 10. […]

[5] = system: SW620 cells; test: Inhibition of cell growth and potentiation of topotecan, SW620; assay type: cell-based, human
[6] = irinotecan 25 mg/kg i.p. + 0.5 mg/kg i.p. (glucuronate salt)
[7] = SW620, 0.1 mg/kg i.p. glucuronate salt + temozolomide 68 mg/kg p.o., QD×5
[8] = SW620, 1.0 mg/kg i.p. glucuronate salt + temozolomide 68 mg/kg p.o., QD×5

Compound: CNCc1ccc(-c2[nH]c3cc(F)cc4c3c2CCNC4=O)cc1.O=P(O)(O)O [Compound I, phosphate salt of 8-fluoro-2-{4-[(methylamino)methyl]phenyl}-1,3,4,5-tetrahydro-6H-azepino[5,4,3-cd]indol-6-one]
- single-agent antitumor effects ([1]; Compound I alone): no single-agent antitumor effects

Compound: CNCc1ccc(-c2[nH]c3cc(F)cc4c3c2CCNC4=O)cc1.O=C[C@H](O)[C@@H](O)[C@H](O)[C@H](O)C(=O)O [compound of formula 1 glucuronate salt]
- Enhancement (%) ([2]; irinotecan 25 mg/kg i.p. + 0.0 mg/kg i.p. (glucuronate salt)): 0%
- Enhancement (%) ([2]; irinotecan 25 mg/kg i.p. + 0.15 mg/kg i.p. (glucuronate salt)): 71%
- Enhancement (%) [2, 6]: 86^f %
- Plasma compound of formula 1 ([3]; 0.1 mg/kg i.p. as glucuronate salt + temozolomide 68 mg/kg p.o., 0.5 h): 12.7 ± 2.3 ng/mL
- Plasma compound of formula 1 ([3]; 0.1 mg/kg i.p. as glucuronate salt + temozolomide 68 mg/kg p.o., 6 h): 0.0 ± 0.0 ng/mL
- Plasma compound of formula 1 ([3]; 0.1 mg/kg i.p. as glucuronate salt + temozolomide 68 mg/kg p.o., 24 h): 0.0 ± 0.0 ng/mL
- Plasma compound of formula 1 ([3]; 1.0 mg/kg i.p. as glucuronate salt + temozolomide 68 mg/kg p.o., 0.5 h): 92.0 ± 28.0 ng/mL
- Plasma compound of formula 1 ([3]; 1.0 mg/kg i.p. as glucuronate salt + temozolomide 68 mg/kg p.o., 6 h): 4.7 ± 4.0 ng/mL
- Plasma compound of formula 1 ([3]; 1.0 mg/kg i.p. as glucuronate salt + temozolomide 68 mg/kg p.o., 24 h): 0.0 ± 0.0 ng/mL
- Plasma compound of formula 1 ([3]; 10 mg/kg i.p. as glucuronate salt + temozolomide 68 mg/kg p.o., 0.5 h): 1532 + 134 ng/mL
- Plasma compound of formula 1 ([3]; 10 mg/kg i.p. as glucuronate salt + temozolomide 68 mg/kg p.o., 6 h): 98.0 ± 28.0 ng/mL
- Plasma compound of formula 1 ([3]; 10 mg/kg i.p. as glucuronate salt + temozolomide 68 mg/kg p.o., 24 h): 17.8 ± 29.5 ng/mL
- PARP Activity (%) ([4]; 0.1 mg/kg i.p. glucuronate salt + temozolomide 68 mg/kg, 0.5 h): 77.6 ± 13.3%
- PARP Activity (%) ([4]; 0.1 mg/kg i.p. glucuronate salt + temozolomide 68 mg/kg, 6 h): 90.2 ± 11.5%
- PARP Activity (%) ([4]; 0.1 mg/kg i.p. glucuronate salt + temozolomide 68 mg/kg, 24 h): 100.4 ± 7.5%
- PARP Activity (%) ([4]; 1.0 mg/kg i.p. glucuronate salt + temozolomide 68 mg/kg, 0.5 h): 24.9 ± 16.2%
- PARP Activity (%) ([4]; 1.0 mg/kg i.p. glucuronate salt + temozolomide 68 mg/kg, 6 h): 68.6 ± 36.2%
- PARP Activity (%) ([4]; 1.0 mg/kg i.p. glucuronate salt + temozolomide 68 mg/kg, 24 h): 70.2 ± 19.0%
- PARP Activity (%) ([4]; 10 mg/kg i.p. glucuronate salt + temozolomide 68 mg/kg, 0.5 h): 3.4 ± 1.4%
- PARP Activity (%) ([4]; 10 mg/kg i.p. glucuronate salt + temozolomide 68 mg/kg, 6 h): 4.8 ± 0.87%
- PARP Activity (%) ([4]; 10 mg/kg i.p. glucuronate salt + temozolomide 68 mg/kg, 24 h): 18.3 ± 12.7%
- Enhancement (%) [1, 7]: 28^g %
- Enhancement (%) [1, 8]: ≧100^g %
- body weight loss ([1]; SW620, temozolomide 68 mg/kg + 0.05 or 0.15 mg/kg glucuronate salt QD×5): No body weight loss
- complete remission rate ([1]; SW620, temozolomide 68 mg/kg + 0.15 or 0.5 mg/kg glucuronate salt QD×5): 100%
- Enhancement (%) ([1]; SW620, temozolomide 68 mg/kg oral + 0.05 mg/kg i.p. (glucuronate salt), once daily for 5 days): 35%
- Enhancement (%) ([1]; SW620, temozolomide 68 mg/kg oral + 0.15 mg/kg i.p. (glucuronate salt), once daily for 5 days): 270^f %
- Enhancement (%) ([1]; SW620, temozolomide 68 mg/kg oral + 0.5 mg/kg i.p. (glucuronate salt), once daily for 5 days): >60^f, g %

Compound: CNCc1ccc(-c2[nH]c3cc(F)cc4c3c2CCNC4=O)cc1 [compound of formula 1, 8-fluoro-2-{4-[(methylamino)methyl]phenyl}-1,3,4,5-tetrahydro-6H-azepino[5,4,3-cd]indol-6-one]
- Topotecan PF50 ([5]; +0.4 μM compound of formula 1): 2.6
- GI50 ([5]; Homo sapiens, SW-620, 120 h, 5-day continuous exposure): 11 µM
- Enhancement (%) [2, 6]: 86%
- Tumor compound of formula 1 ([3]; 1.0 mg/kg i.p. as phosphate salt, 24 h): BLQ^c
- plasma concentrations ([3]; 1.0 mg/kg, 6 hours): barely detectable
- Plasma compound of formula 1 ([3]; 10 mg/kg i.p. as phosphate salt, 0.5 h): 1867 + 102 ng/mL
- plasma concentrations ([3]; 10 mg/kg, 24 h): barely detectable
- tumor levels ([3]; 10 mg/kg, all times up to 24 h): > 200 ng/mL
- concentration at 0.5 h ([3]; plasma, 1 mg/kg, Plasma compound of formula 1, 1.0 mg/kg i.p. as phosphate salt, 0.5 h): 107 ± 32.3 ng/mL
- concentration at 6 h ([3]; plasma, 1 mg/kg, Plasma compound of formula 1, 1.0 mg/kg i.p. as phosphate salt, 6 h): 6.64 ± 1.55 ng/mL
- concentration at 24 h ([3]; plasma, 1 mg/kg, Plasma compound of formula 1, 1.0 mg/kg i.p. as phosphate salt, 24 h): 1.85 ± 0.14 ng/mL
- concentration at 6 h ([3]; plasma, 10 mg/kg, Plasma compound of formula 1, 10 mg/kg i.p. as phosphate salt, 6 h): 64.4 ± 11 ng/mL
- concentration at 24 h ([3]; plasma, 10 mg/kg, Plasma compound of formula 1, 10 mg/kg i.p. as phosphate salt, 24 h): 2.34 ± 0.33 ng/mL
- concentration at 6 h ([3]; plasma, 10 mg/kg, 6 h, read-out: plasma concentrations): 30 ng/mL
- concentration at 0.5 h ([3]; tumor, 1 mg/kg, Tumor compound of formula 1, 1.0 mg/kg i.p. as phosphate salt, 0.5 h): 98.3 ± 25.2 ng/g
- concentration at 6 h ([3]; tumor, 1 mg/kg, Tumor compound of formula 1, 1.0 mg/kg i.p. as phosphate salt, 6 h): 49.5 ± 2.12 ng/g
- concentration at 0.5 h ([3]; tumor, 10 mg/kg, Tumor compound of formula 1, 10 mg/kg i.p. as phosphate salt, 0.5 h): 767 ± 55.6 ng/g
- concentration at 6 h ([3]; tumor, 10 mg/kg, Tumor compound of formula 1, 10 mg/kg i.p. as phosphate salt, 6 h): 523 ± 37.3 ng/g
- concentration at 24 h ([3]; tumor, 10 mg/kg, Tumor compound of formula 1, 10 mg/kg i.p. as phosphate salt, 24 h): 167 ± 54.2 ng/g
- PARP catalytic activity inhibited ([4]; 1.0 mg/kg, 6 h): 50%
- PARP catalytic activity inhibited ([4]; 1.0 mg/kg, 24 h): 25%
- PARP catalytic activity inhibited ([4]; 10 mg/kg, 6 h): 90%
- PARP catalytic activity inhibited ([4]; 10 mg/kg, 24 h): 75%
- Enhancement (%) [1, 7]: 28%
- Enhancement (%) [1, 8]: 100%
- Enhancement (%) ([1]; SW620, temozolomide 200 mg/kg oral + compound 0.1 mg/kg i.p., single dose): 50^e %
- Enhancement (%) ([1]; SW620, temozolomide 200 mg/kg oral + compound 0.3 mg/kg i.p., single dose): 80^e %
- Enhancement (%) ([1]; SW620, temozolomide 200 mg/kg oral + compound 1 mg/kg i.p., single dose): 107^e %
- Enhancement (%) ([1]; SW620, temozolomide 200 mg/kg oral + compound 5 mg/kg i.p., single dose): 111^e,f %
